{"source": "patent US8354415B2", "about": "“Thienopyrimidine compounds and compositions” (Vernalis (R&D) Ltd., priority 2007, dated 2013)", "data": [{"target": "T1, human adenosine A2B receptors (Homo sapiens, UniProt P29275)", "T1 construct": "expressed in transfected cells", "T1 sequence (P29275 1-332)": "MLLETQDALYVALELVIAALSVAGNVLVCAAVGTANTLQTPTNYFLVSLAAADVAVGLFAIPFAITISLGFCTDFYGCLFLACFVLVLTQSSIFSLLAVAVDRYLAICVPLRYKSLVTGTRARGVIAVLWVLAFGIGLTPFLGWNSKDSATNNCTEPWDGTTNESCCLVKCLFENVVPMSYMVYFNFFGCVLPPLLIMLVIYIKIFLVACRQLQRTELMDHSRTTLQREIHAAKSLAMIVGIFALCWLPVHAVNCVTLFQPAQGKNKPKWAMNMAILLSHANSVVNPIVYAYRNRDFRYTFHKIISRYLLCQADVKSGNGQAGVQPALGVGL", "assay": "FLIPR calcium flux assay, adenosine A2B receptor expressing cells", "format": "cell-based", "conditions": "expressed human adenosine A2B receptors in mammalian cell lines, activity range", "description": "The use of a Fluorometric Imaging Plate Reader (FLIPR) to measure calcium flux in Adenosine-receptor expressing cells is a well-established technique. In this assay calcium flux is triggered by receptor activation and measured through the fluorescence of an incorporated calcium-sensitive dye. The potencies shown were determined using expressed human adenosine A2B receptors in mammalian cell lines. Selectivity values were obtained by using mammalian cell lines expressing the human adenosine A1, A2A, and A3 receptors. Compound potency was determined from dose response curves and are reported as IC50 values.", "units": {"IC50": "nM"}, "values": [{"smiles": "CC(Nc1nc(C(=O)N2CCCC2)c2sccc2n1)c1cccnc1", "note": "(racemic) [Example 7, [2-(1-Pyridin-3-yl-ethylamino)-thieno[3,2-d]pyrimidin-4-yl]-pyrrolidin-1-yl-methanone]", "IC50": "> 500"}, {"smiles": "CCNC(=O)c1nc(NCc2cccnc2)nc2ccsc12", "note": "[Example 8, 2-[(Pyridin-3-ylmethyl)-amino]-thieno[3,2-d]pyrimidine-4-carboxylic acid ethylamide]", "IC50": "> 500"}, {"smiles": "O=C(c1nc(NCc2cccnc2)nc2ccsc12)N1CCCC1", "note": "[Example 9, {2-[(Pyridin-3-ylmethyl)-amino]-thieno[3,2-d]pyrimidin-4-yl}-pyrrolidin-1-yl-methanone]", "IC50": "< 500"}, {"smiles": "O=C(NC1CC1)c1nc(NCc2cccnc2)nc2ccsc12", "note": "[Example 10, 2-[(Pyridin-3-ylmethyl)-amino]-thieno[3,2-d]pyrimidine-4-carboxylic acid cyclopropylamide]", "IC50": "> 500"}, {"smiles": "CC(C)NC(=O)c1nc(NCc2cccnc2)nc2ccsc12", "note": "[Example 11, 2-[(Pyridin-3-ylmethyl)-amino]-thieno[3,2-d]pyrimidine-4-carboxylic acid isopropylamide]", "IC50": "< 500"}, {"smiles": "O=C(NC1CCCC1)c1nc(NCc2cccnc2)nc2ccsc12", "note": "[Example 12, 2-[(Pyridin-3-ylmethyl)-amino]thieno[3,2-d]pyrimidine-4-carboxylic acid cyclopentylamide]", "IC50": "> 500"}, {"smiles": "CNC(=O)c1nc(NCc2cccnc2)nc2ccsc12", "note": "[Example 13, 2-[(Pyridin-3-ylmethyl)-amino]-thieno[3,2-d]pyrimidine-4-carboxylic acid methylamide]", "IC50": "> 500"}, {"smiles": "O=C(NCCc1ccccc1)c1nc(NCc2cccnc2)nc2ccsc12", "note": "[Example 14, 2-[(Pyridin-3-ylmethyl)-amino]-thieno[3,2-d]pyrimidine-4-carboxylic acid phenethyl-amide]", "IC50": "< 500"}, {"smiles": "O=C(NC1CCCCC1)c1nc(NCc2cccnc2)nc2ccsc12", "note": "[Example 15, 2-[(Pyridin-3-ylmethyl)-amino]-thieno[3,2-d]pyrimidine-4-carboxylic acid cyclohexylamide]", "IC50": "< 500"}, {"smiles": "O=C(NCc1ccccc1)c1nc(NCc2cccnc2)nc2ccsc12", "note": "[Example 16, 2-[(Pyridin-3-ylmethyl)-amino]-thieno[3,2-d]pyrimidine-4-carboxylic acid benzylamide]", "IC50": "< 500"}, {"smiles": "COCCNC(=O)c1nc(NCc2cccnc2)nc2ccsc12", "note": "[Example 17, 2-[(Pyridin-3-ylmethyl)-amino]-thieno[3,2-d]pyrimidine-4-carboxylic acid (2-methoxy-ethyl)-amide]", "IC50": "> 500"}, {"smiles": "O=C(NCc1cccnc1)c1nc(NCc2cccnc2)nc2ccsc12", "note": "[Example 18, 2-[(Pyridin-3-ylmethyl)-amino]-thieno[3,2-d]pyrimidine-4-carboxylic acid (pyridin-3-ylmethyl)-amide]", "IC50": "> 500"}, {"smiles": "O=C(c1nc(NCc2cccnc2)nc2ccsc12)N1CCCCC1", "note": "[Example 19, Piperidin-1-yl-{2-[(pyridin-3-ylmethyl)-amino]-thieno[3,2-d]pyrimidin-4-yl}-methanone]", "IC50": "> 500"}, {"smiles": "CC(Nc1nc(C(=O)NC2CC2)c2sccc2n1)c1cccnc1", "note": "(centres unmarked) [Example 20, 2-(1-Pyridin-3-yl-ethylamino)-thieno[3,2-d]pyrimidine-4-carboxylic acid cyclopropylamide]", "IC50": "< 500"}, {"smiles": "Nc1nc(C(=O)NC2CC2)c2sccc2n1", "note": "[Example 21, 2-Amino-thieno[3,2-d]pyrimidine-4-carboxylic acid cyclopropylamide]", "IC50": "> 500"}, {"smiles": "C[C@@H](Nc1nc(C(=O)N2CCCC2)c2sccc2n1)c1cccnc1", "note": "[Example 22]", "IC50": "> 500"}, {"smiles": "C[C@H](Nc1nc(C(=O)N2CCCC2)c2sccc2n1)c1cccnc1", "note": "[Example 23, (S)-[2-(1-Pyridin-3-yl-ethylamino)-thieno[3,2-d]pyrimidin-4-yl]-pyrrolidin-1-yl-methanone]", "IC50": "< 500"}]}]}
